Experimental data published in PMC11489133, “Obicetrapib exhibits favorable physiochemical and pharmacokinetic properties compared to previous cholesteryl ester transfer protein inhibitors: An integrated summary of results from non‐human primate studies and clinical trials” (Pharmacology Research & Perspectives, 2024).
Where two headings read alike, the source gives them in different places.

Test: 39-week oral (gavage) toxicity/toxicokinetic study with 13-week treatment-free recovery period in cynomolgus monkeys
Assay type: in vivo, cynomolgus monkeys (Macaca fascicularis)
Conditions: for AUC(0–24) / Cmax / AUC(0-t): mean; for Rac AUC(0–24 h) (accumulation ratio) / Rac C max (accumulation ratio): Week 39 / Day 1; for concentration at 13 weeks after last dose / half-life / t max / Cmax / AUC(0-t): cynomolgus monkey; for concentration at 13 weeks after last dose: oral, after 13‐week treatment‐free period, all four recovery monkeys; for half-life / t max / Cmax / AUC(0-t): plasma, po; for AUC(0-t): read-out: AUC(0–24) (converted)
Method: CETP is present and active in non‐human primates, rabbits, and hamsters, but is absent in most other animal species, including mice, rats, and dogs.[2], [31], [32] A non‐human primate study was conducted using cynomolgus monkeys (Macaca fascicularis) to evaluate the toxicity of obicetrapib (TA‐8995), following twice daily (b.i.d.), six h apart, oral (gavage) administration to the monkey for 39 weeks (Clinical Study Report [CSR], NewAmsterdam Pharma). The monkey was selected as the species for this study because the CETP structure in monkeys is very similar to the structure of human CETP.[33] The cynomolgus monkeys were obtained from Noveprim Ltd, Mauritius. The monkeys were approximately 26–30 months old when obtained for the study and 28–32 months old at the start of dosing. On arrival at the study site, the weight range of the monkeys was 2.4–3.3 kg. Individual body weights were recorded once weekly (including Day 1 before the start of dosing) from time of allocation and on the day of necropsy. At the start of dosing, the weight range of the monkeys was 2.4–3.3 kg and 2.5–3.9 kg for the females and males, respectively. The weight range of the monkeys at the end of the dosing period (Week 39) was 3.0–4.8 kg and 3.0–5.2 kg for females and males, respectively.
The weight range of the recovery monkeys (n = 8) at Week 14 of the recovery period, prior to necropsy, was 3.5–5.2 kg and 3.7–4.9 kg for the females and males, respectively.
The animals were housed in pens that conform to the “Code of practice for the housing and care of animals used in scientific procedures” in rooms exclusive to the study. The rooms were air‐conditioned to provide 15–20 air changes/hour, and the temperature and relative humidity ranges were maintained at 21–25°C and 40–70%, respectively. Fluorescent lighting was controlled automatically to give a cycle of 12 h light and 12 h dark, with the exception of when experimental procedures dictated otherwise. A number of strategies were used for environmental enrichment for the monkeys, such as the provision of toys (e.g., balls, inert nylon chews), swings, and foraging materials. The monkeys were offered ad libitum water, 100 g of SQC Mazuri Primate Diet (Special Diets Services Ltd., Witham, UK), and a 25 g Bonio biscuit (Spillers) each day. When available, the diet was supplemented twice daily with fresh fruit, fresh vegetables, forage mix, peanuts, raisins, or sunflower seeds. The study was conducted in accordance with the requirements of the Animals (Scientific Procedures) Act 1986 and a local ethical review was maintained (CSR, NewAmsterdam Pharma).
The monkeys (n = 40; 20 of each sex) were allocated into four groups (based on existing social groupings) to receive treatment for 39 weeks: a control group (no treatment), a low‐dose group (10 mg/kg/day [5 mg/kg/b.i.d.] of obicetrapib), an intermediate‐dose group (20 mg/kg/day [10 mg/kg/b.i.d.] of obicetrapib), and a high‐dose group (50 mg/kg/day [25 mg/kg/b.i.d.] of obicetrapib). Four monkeys (two of each sex) from the 50 mg/kg/day dose group and four (two of each sex) from the control group were followed for an extended treatment‐free period of 13 weeks (recovery period). Obicetrapib was dosed as a suspension in 0.5% sodium carboxylmethyl cellulose solution and 0.1% polyoxyethylene hydrogenated castor oil. Toxicokinetic parameters were examined after 39 weeks of dosing. Blood samples for toxicokinetic evaluation were taken from all monkeys in the study on Day 1 and Day 273 (Week 39) pre‐dose and at 0.5, 1, 2, 3, 4, 6, 7.5, 9, 10, 12, and 24 h after dosing. Blood samples for toxicokinetic assessments were taken from the recovery animals on multiple days during the treatment‐free period at the same time intervals as the 24‐hour samples in Week 39. Delayed onset toxicity and/or reversibility of toxicity were examined during the 13‐week treatment‐free period. […]

[1] = female, 10 mg/kg/day, Day 1, 10 mg/kg/d, females
[2] = female, 20 mg/kg/day, Day 1, 20 mg/kg/d, females
[3] = female, 50 mg/kg/day, Day 1, 50 mg/kg/d, females
[4] = male, 10 mg/kg/day, Day 1, 10 mg/kg/d, males
[5] = male, 20 mg/kg/day, Day 1, 20 mg/kg/d, males
[6] = male, 50 mg/kg/day, Day 1, 50 mg/kg/d, males

CCOC(=O)N1c2ccc(C(F)(F)F)cc2C(N(Cc2cc(C(F)(F)F)cc(C(F)(F)F)c2)c2ncc(OCCCC(=O)O)cn2)CC1CC (stereo not shown) [Obicetrapib]
AUC(0–24) (Day 273 (Week 39), 10 mg/kg/d, females): 41 300 ngh/mL
AUC(0–24) (Day 273 (Week 39), 10 mg/kg/d, males): 40 300 ngh/mL
AUC(0–24) (Day 273 (Week 39), 20 mg/kg/d, females): 54 000 ngh/mL
AUC(0–24) (Day 273 (Week 39), 20 mg/kg/d, males): 65 200 ngh/mL
AUC(0–24) (Day 273 (Week 39), 50 mg/kg/d, females): 103 000 ngh/mL
AUC(0–24) (Day 273 (Week 39), 50 mg/kg/d, males): 111 000 ngh/mL
Rac AUC(0–24 h) (accumulation ratio) (10 mg/kg/d, females, mean (SD)): 1.4 (0.2)
Rac C max (accumulation ratio) (10 mg/kg/d, females, mean (SD)): 1.0 (0.2)
Rac AUC(0–24 h) (accumulation ratio) (10 mg/kg/d, males, mean (SD)): 1.4 (0.3)
Rac C max (accumulation ratio) (10 mg/kg/d, males, mean (SD)): 1.4 (0.1)
Rac AUC(0–24 h) (accumulation ratio) (20 mg/kg/d, females, mean (SD)): 1.1 (0.2)
Rac C max (accumulation ratio) (20 mg/kg/d, females, mean (SD)): 1.1 (0.2)
Rac AUC(0–24 h) (accumulation ratio) (20 mg/kg/d, males, mean (SD)): 1.4 (0.2)
Rac C max (accumulation ratio) (20 mg/kg/d, males, mean (SD)): 1.4 (0.3)
Rac AUC(0–24 h) (accumulation ratio) (50 mg/kg/d, females, mean (SD)): 0.9 (0.2)
Rac C max (accumulation ratio) (50 mg/kg/d, females, mean (SD)): 0.8 (0.1)
Rac AUC(0–24 h) (accumulation ratio) (50 mg/kg/d, males, mean (SD)): 1.0 (0.1)
Rac C max (accumulation ratio) (50 mg/kg/d, males, mean (SD)): 1.0 (0.2)
concentration at 13 weeks after last dose (both sexes, fat homogenate, 50 mg/kg/day, read-out: obicetrapib in fat homogenate (below LLOQ)): < 0.5 ng/mL
concentration at 13 weeks after last dose (both sexes, 50 mg/kg/day, perirenal white fat, read-out: obicetrapib in adipose tissue (below LLOQ), per g of fat): < 10 ng/g
half-life (both sexes, Day 1, read-out: Apparent t 1/2 for the individual monkeys): 4.8 to 10.5 h
half-life (both sexes, Day 1, read-out: mean t 1/2, range over groups): 5.8 to 7.2 h
half-life (both sexes, Day 273, read-out: mean t 1/2, range over groups): 6.4 to 12.1 h
half-life (both sexes, Week 39, with one exception, read-out: Apparent t 1/2 for the individual monkeys): 5.3 to 18.3 h
elimination of obicetrapib from plasma (end of 13‐week treatment‐free period, 50 mg/kg/day, both males and one female): complete
obicetrapib detected in plasma, % of the observed maximum concentration (end of 13‐week treatment‐free period, 50 mg/kg/day, one recovery female): 0.25%
time within which the mean C max was achieved (end of treatment, all of the monkeys, 3 h after the second dose): ≤ 9 h
t max (female, 10 mg/kg/day, Day 1, 10 mg/kg/d, females, mean (SD)): 5.9 h
half-life (female, 10 mg/kg/day, Day 1, 10 mg/kg/d, females, mean (SD), read-out: t ½ (elimination half‐life) (converted)): 7.2 h
Cmax (female, 10 mg/kg/day, Day 273 (Week 39), 10 mg/kg/d, females): 3390 ng/mL
t max (female, 10 mg/kg/day, Day 273 (Week 39), 10 mg/kg/d, females, mean (SD)): 4.8 h
half-life (female, 10 mg/kg/day, Day 273 (Week 39), 10 mg/kg/d, females, mean (SD), read-out: t ½ (elimination half‐life) (converted)): 12.1 h
Cmax [1]: 3300 ng/mL
AUC(0-t) [1]: 29800 ng·h/mL
t max (female, 20 mg/kg/day, Day 1, 20 mg/kg/d, females, mean (SD)): 4.8 h
half-life (female, 20 mg/kg/day, Day 1, 20 mg/kg/d, females, mean (SD), read-out: t ½ (elimination half‐life) (converted)): 5.8 h
Cmax (female, 20 mg/kg/day, Day 273 (Week 39), 20 mg/kg/d, females): 5160 ng/mL
t max (female, 20 mg/kg/day, Day 273 (Week 39), 20 mg/kg/d, females, mean (SD)): 4.8 h
half-life (female, 20 mg/kg/day, Day 273 (Week 39), 20 mg/kg/d, females, mean (SD), read-out: t ½ (elimination half‐life) (converted)): 8.8 h
Cmax [2]: 4980 ng/mL
AUC(0-t) [2]: 47800 ng·h/mL
half-life (female, 50 mg/kg/day, 50 mg/kg/day group, female with detectable concentrations 13 weeks after the last dose, read-out: t ½ of one outlier female (converted)): 516 h
t max (female, 50 mg/kg/day, Day 1, 50 mg/kg/d, females, mean (SD)): 6.2 h
half-life (female, 50 mg/kg/day, Day 1, 50 mg/kg/d, females, mean (SD), read-out: t ½ (elimination half‐life) (converted)): 6.8 h
Cmax (female, 50 mg/kg/day, Day 273 (Week 39), 50 mg/kg/d, females): 8480 ng/mL
t max (female, 50 mg/kg/day, Day 273 (Week 39), 50 mg/kg/d, females, mean (SD)): 6.6 h
half-life (female, 50 mg/kg/day, Day 273 (Week 39), 50 mg/kg/d, females, mean (SD), does not include data from one outlier, read-out: t ½ (elimination half‐life) (converted)): 7.4 h
half-life (female, 50 mg/kg/day, females in the high dose group (50 mg/kg/day), Week 39, read-out: mean t 1/2 including the outlier (converted)): 109 h
Cmax [3]: 11600 ng/mL
AUC(0-t) [3]: 118000 ng·h/mL
t max (male, 10 mg/kg/day, Day 1, 10 mg/kg/d, males, mean (SD)): 5 h
half-life (male, 10 mg/kg/day, Day 1, 10 mg/kg/d, males, mean (SD), read-out: t ½ (elimination half‐life) (converted)): 6.8 h
Cmax (male, 10 mg/kg/day, Day 273 (Week 39), 10 mg/kg/d, males): 3800 ng/mL
t max (male, 10 mg/kg/day, Day 273 (Week 39), 10 mg/kg/d, males, mean (SD)): 2 h
half-life (male, 10 mg/kg/day, Day 273 (Week 39), 10 mg/kg/d, males, mean (SD), read-out: t ½ (elimination half‐life) (converted)): 11 h
Cmax [4]: 2800 ng/mL
AUC(0-t) [4]: 29300 ng·h/mL
t max (male, 20 mg/kg/day, Day 1, 20 mg/kg/d, males, mean (SD)): 2.5 h
half-life (male, 20 mg/kg/day, Day 1, 20 mg/kg/d, males, mean (SD), read-out: t ½ (elimination half‐life) (converted)): 6.9 h
Cmax (male, 20 mg/kg/day, Day 273 (Week 39), 20 mg/kg/d, males): 6410 ng/mL
t max (male, 20 mg/kg/day, Day 273 (Week 39), 20 mg/kg/d, males, mean (SD)): 2.3 h
half-life (male, 20 mg/kg/day, Day 273 (Week 39), 20 mg/kg/d, males, mean (SD), read-out: t ½ (elimination half‐life) (converted)): 8.1 h
Cmax [5]: 4740 ng/mL
AUC(0-t) [5]: 46600 ng·h/mL
t max (male, 50 mg/kg/day, Day 1, 50 mg/kg/d, males, mean (SD)): 7.6 h
half-life (male, 50 mg/kg/day, Day 1, 50 mg/kg/d, males, mean (SD), read-out: t ½ (elimination half‐life) (converted)): 6.8 h
Cmax (male, 50 mg/kg/day, Day 273 (Week 39), 50 mg/kg/d, males): 9210 ng/mL
t max (male, 50 mg/kg/day, Day 273 (Week 39), 50 mg/kg/d, males, mean (SD)): 8.5 h
half-life (male, 50 mg/kg/day, Day 273 (Week 39), 50 mg/kg/d, males, mean (SD), read-out: t ½ (elimination half‐life) (converted)): 6.4 h
Cmax [6]: 9600 ng/mL
AUC(0-t) [6]: 118000 ng·h/mL
mean body weights (recovery period, monkeys treated at 50 mg/kg/day (25 mg/kg/b.i.d.)): comparable with the control monkeys
Group mean body weights (treated monkeys, dosing period): comparable with the control monkeys
